Reference: patent US7745636B2, “Hepatitis C virus inhibitors” (Bristol-Myers Squibb Company, priority 2006, dated 2010)

These compounds were tested on HCV 1b-377-neo replicon cells (assay: HCV Replicon assay, HCV 1b-377-neo replicon cells). Settings: Hepatitis C virus, Table 2, read-out: Range (EC50 against HCV 1b).
Type: cell-based, HCV 1b genotype
Cc1cc(-c2cnc([C@@H]3CCCN3C(=O)[C@@H](c3ccccc3)N(C)C)[nH]2)ccc1-c1ccc(-c2cnc([C@@H]3CCCN3C(=O)[C@@H](c3ccccc3)N(C)C)[nH]2)cn1 [Example 136, (1R)-2-((2S)-2-(5-(6-(4-(2-((2S)-1-((2R)-2-(dimethylamino)-2-phenylacetyl)-2-pyrrolidinyl)-1H-imidazol-5-yl)-2-methylphenyl)-3-pyridinyl)-1H-imidazol-2-yl)-1-pyrrolidinyl)-N,N-dimethyl-2-oxo-1-phenylethanamine] showed an EC50 of 1 to 999 pM.
In the case of CN(C)[C@@H](C(=O)N1CCC[C@H]1c1ncc(-c2ccc(-c3ccc(-c4cnc([C@@H]5CCCN5C(=O)[C@@H](c5ccccc5)N(C)C)[nH]4)nc3)cc2)[nH]1)c1ccccc1 [Example 146, (1R)-2-((2S)-2-(5-(5-(4-(2-((2S)-1-((2R)-2-(dimethylamino)-2-phenylacetyl)-2-pyrrolidinyl)-1H-imidazol-5-yl)phenyl)-2-pyridinyl)-1H-imidazol-2-yl)-1-pyrrolidinyl)-N,N-dimethyl-2-oxo-1-phenylethanamine], the EC50 is reported as 1 to 999 pM.
COC(=O)N[C@H](C(=O)Nc1ncc(-c2ccc(-c3ccc(-c4cnc([C@@H]5CCCN5C(=O)[C@@H](NC(=O)OC)C(C)C)[nH]4)cc3)cc2)[nH]1)C(C)C [Example R33, (S)-2-methoxycarbonylamino-N-(5-(4′-(2-((S)-1-((S)-2-methoxycarbonylamino-3-methylbutanoyl)pyrrolidin-2-yl)-1H-imidazol-5-yl)biphenyl-4-yl)-1H-imidazol-2-yl)-3-methylbutanamide] showed an EC50 of 1000 to 99000 pM.
In the case of COC(=O)N[C@@H](C(=O)N(C)[C@@H](C)c1ncc(-c2ccc(-c3ccc(-c4cnc([C@H](C)N(C)C(=O)[C@H](NC(=O)OC)c5ccccc5)[nH]4)cc3)cc2)[nH]1)c1ccccc1 [Example 24-18-1, dimethyl (4,4′-biphenyldiylbis (1H-imidazole-5,2-diyl(1S)-1,1-ethanediyl(methyl-imino)((1R)-2-oxo-1-phenyl-2,1-ethanediyl))) biscarbamate], the EC50 is reported as 1 to 999 pM.
In the case of CN(C)[C@@H](C(=O)N1CCC[C@H]1c1ncc(-c2ccc(-c3ncc(-c4cnc([C@@H]5CCCN5C(=O)[C@@H](c5ccccc5)N(C)C)[nH]4)cn3)cc2)[nH]1)c1ccccc1 [Example 152j-1, (1R)-2-((2S)-2-(5-(2-(4-(2-((2S)-1-((2R)-2-(dimethylamino)-2-phenylacetyl)-2-pyrrolidinyl)-1H-imidazol-5-yl)phenyl)-5-pyrimidinyl)-1H-imidazol-2-yl)-1-pyrrolidinyl)-N,N-dimethyl-2-oxo-1-phenylethanamine], the EC50 is reported as 1000 to 99000 pM.
With COC(=O)N[C@@H](C(=O)N1CCC[C@H]1c1ncc(-c2ccc(-c3ccc(-c4cnc([C@@H]5CCCN5C(=O)[C@H](NC(=O)OC)c5ccccc5)[nH]4)cn3)cc2)[nH]1)c1ccccc1 [Example 134, methyl ((1R)-2-((2S)-2-(5-(6-(4-(2-((2S)-1-((2R)-2-((methoxycarbonyl)amino)-2-phenylacetyl)-2-pyrrolidinyl)-1H-imidazol-5-yl)phenyl)-3-pyridinyl)-1H-imidazol-2-yl)-1-pyrrolidinyl)-2-oxo-1-phenylethyl)carbamate] the EC50 was 1 to 999 pM.
In the case of COC(=O)N[C@H](C(=O)N1CCC[C@H]1c1ncc(-c2ccc(-c3ccc(-c4cnc([C@@H]5CCCN5C(=O)[C@@H](Nc5noc(N)n5)C(C)C)[nH]4)cc3)cc2)[nH]1)C(C)C [cj-16, methyl((1S)-1-(((2S)-2-(5-(4′-(2-((2S)-1-(N-(5-amino-1,2,4-oxadiazol-3-yl)-L-valyl)-2-pyrrolidinyl)-1H-imidazol-5-yl)-4-biphenylyl)-1H-imidazol-2-yl)-1-pyrrolidinyl)carbonyl)-2-methylpropyl)carbamate], the EC50 is reported as 1 to 999 pM.
Compound COC(=O)N[C@@H](C(=O)N(C)[C@@H](C)c1ncc(-c2ccc(-c3ccc(-c4cnc([C@@H]5CCCN5C(=O)[C@@H](c5ccccc5)N(C)C)[nH]4)cc3)cc2)[nH]1)c1ccccc1 [Example 131.1-1, methyl((1R)-2-(((1S)-1-(5-(4′-(2-((2S)-1-((2R)-2-(dimethylamino)-2-phenylacetyl)-2-pyrrolidinyl)-1H-imidazol-5-yl)-4-biphenylyl)-1H-imidazol-2-yl)ethyl) (methyl)amino)-2-oxo-1-phenylethyl)carbamate] has an EC50 of 1 to 999 pM.
Work on COC(=O)N[C@@H](C(=O)N[C@@H](C)c1ncc(-c2cnc(-c3ccc(-c4cnc([C@@H]5CCCN5C(=O)[C@H](NC(=O)OC)c5ccccc5)[nH]4)cc3)nc2)[nH]1)c1ccccc1 [Example 152j-17, methyl ((1R)-2-((2S)-2-(5-(4-(5-(2-((1S)-1-(((2R)-2-((methoxycarbonyl)amino)-2-phenylace-tyl)amino)eth-yl)-1H-imidazol-5-yl)-2-pyrimidinyl)phenyl)-1H-imidazol-2-yl)-1-pyrrolidinyl)-2-oxo-1-phenylethyl)carbamate] yielded an EC50 of 1 to 999 pM.
With CN(C)[C@@H](C(=O)N1CCC[C@H]1c1ncc(-c2ccc(-c3cnc(-c4cnc([C@@H]5CCCN5C(=O)[C@@H](c5ccccc5)N(C)C)[nH]4)cn3)cc2)[nH]1)c1ccccc1 [Example 152j-7, (1R)-2-((2S)-2-(5-(5-(4-(2-((2S)-1-((2R)-2-(dimethylamino)-2-phenylacetyl)-2-pyrrolidinyl)-1H-imidazol-5-yl)phenyl)-2-pyrazinyl)-1H-imidazol-2-yl)-1-pyrrolidinyl)-N,N-dimethyl-2-oxo-1-phenylethanamine] the EC50 was 1000 to 99000 pM.
For C[C@@H](c1ncc(-c2ccc(-c3ncc(-c4cnc([C@@H]5CCCN5C(=O)[C@@H](c5ccccc5)N5CCCCC5)[nH]4)cn3)cc2)[nH]1)N(C)C(=O)[C@@H](c1ccccc1)N1CCCCC1 [Example 152j-6, (2R)-N-methyl-2-phenyl-N-((1S)-1-(4-(4-(5-(2-((2S)-1-((2R)-2-phenyl-2-(1-piperidinyl)acetyl)-2-pyrrolidinyl)-1H-imidazol-5-yl)-2-pyrimidinyl)phenyl)-1H-imidazol-2-yl)ethyl)-2-(1-piperidinyl)acetamide], the EC50 was 1 to 999 pM.
With CCN(CC)C(C)C(=O)N1CCC[C@H]1c1nc(C(F)(F)F)c(-c2ccc(-c3ncc(-c4cnc([C@@H]5CCCN5C(=O)[C@@H](C)N(CC)CC)[nH]4)cn3)cc2)[nH]1 (stereo in doubt) [Example J51, (2R)-1-((2S)-2-(5-(4-(5-(2-((2S)-1-((2R)-2-(diethylamino)propanoyl)-2-pyrrolidinyl)-1H-imidazol-5-yl)-2-pyrimidinyl)phenyl)-4-(trifluoromethyl)-1H-imidazol-2-yl)-1-pyrrolidinyl)-N,N-diethyl-1-oxo-2-propanamine] the EC50 was 1000 to 99000 pM.
For COC(=O)N[C@@H](C(=O)N[C@@H](C)c1ncc(-c2ccc(-c3cnc(-c4cnc([C@@H]5CCCN5C(=O)[C@H](NC(=O)OC)c5ccccc5)[nH]4)cn3)cc2)[nH]1)c1ccccc1 [Example 152j-28, methyl ((1R)-2-((2S)-2-(5-(5-(4-(2-((1S)-1-(((2R)-2-((methoxycarbonyl)amino)-2-phenylace-tyl)amino)eth-yl)-1H-imidazol-5-yl)phenyl)-2-pyrazinyl)-1H-imidazol-2-yl)-1-pyrrolidinyl)-2-oxo-1-phenylethyl)carbamate], the EC50 was 1 to 999 pM.

Same assay, conditions: Table 2, read-out: Range (EC50 against HCV 1b)
CC(C)[C@H](NC(=O)OC(C)(C)C)c1ncc(-c2ccc(-c3ccc(-c4cnc([C@@H](NC(=O)OC(C)(C)C)C(C)C)[nH]4)cc3)cc2)[nH]1 [Example 3] gave an EC50 of 1 to 999 pM.
COC(=O)N[C@H](C(=O)N1CCC[C@H]1c1ncc(-c2ccc(-c3ccc(-c4cnc([C@@H]5CCCN5C(=O)CNC(C)C)[nH]4)cc3)cc2)[nH]1)C(C)C [LS25] was tested, and the EC50 was 1 to 999 pM.
